Three molecules from patent US20170157000A1, “COSMETIC PRODUCT WITH LIPOSOMAL GROWTH FACTORS” (DERMOPARTNERS, S.L., priority 2014, published 2017) can be followed below.

Assay [1] has as its system human fibroblasts (HSF). Description: Wound healing assay (cell migration) in human fibroblasts. In kind it is cell-based. The following applies: 1 ng/ml. The text has this: (§1) The objective of the wound healing assay is the study of cell migration. It is based on observing the behavior of a confluent cell monolayer on which a hole or wound has been previously made. The cells at the border of the hole move towards the opening until new cell-cell contacts are established, thus closing the wound.
(§2) The basic steps involve creating the wound or cell free area on the cell monolayer, the capture of images periodically during the experiment and the comparison of all the images to determine the velocity of cell migration.
• 1. Cultivate the cells until confluence (100% approx.) in plates of 6 wells (HaCaT: 500,000 cells/6 well; HSF: 500,000 cells/6 well) • 2. Incubate at 37° C. and 5% of CO2 for 24 hours. • 3. […]
(§3) % migration=(time measured 0−time measured X/time measured 0)*100

Assay [2] relates to human keratinocytes (HaCaT). The experiment in a line: Wound healing assay (cell migration) in human keratinocytes. The note with it: 1 ng/ml; for wound closed more quickly than in the control cells: at 24 hours of treatment; for wound closure: at 48 hours. In kind it is cell-based.
Description: as §1, §2
• 1. Cultivate the cells until confluence (100% approx.) in plates of 6 wells (HaCaT: 500,000 cells/6 well; HSF: 500,000 cells/6 well) • 2. Incubate at 37° C. and 5% of CO2 for 24 hours. • 3. Scaling of the wounds (2 wounds per horizontal trajectory well using yellow sterile points (P200). They are dragged along the monolayer with an angle of inclination of 30 degrees (not perpendicular to the plate) and guided with a previously marked section. Mark three points for taking measurements. • 4. Leave to rest for 15 minutes before adding the treatment. • 5. Prepare the mixtures of free and liposomated factors at a concentration of 1 ng/ml, the medium is removed and add the mixtures. • 6. Incubate at 37° C. and 5% of CO2 for 72 hours. • 7. Take measurements at the times 0, 24, 48 and 72 hours.
The percentage of migration is obtained in the following manner:
as §3

The test system of a further assay is TNFa transcripts. The experiment in a line: Anti-inflammatory effect by quantitative PCR after LPS, TNFa transcripts. The following applies: cells with prior inflammation induced with 200 ng/ml LPS for three hours, dose dependent. In kind it is cell-based, human. The text has this: (§4) PCR in real time or quantitative PCR is a variation of standard PCR used for quantifying DNA or messenger RNA (mRNA) of a sample. Using specific sequence primers, it is possible to determine the number of copies or the relative quantity of a determined DNA or RNA sequence.
(§5) When PCR in real time is combined with a retro-transcription or RT reaction (RTPCR), the mRNA quantity of a sample may be determined by means of a relative quantification. Said quantification is termed relative if the relative quantity or ratio of mRNA of a specific gene is compared with respect to the mRNA quantity of a constitutive gene (endogenous control, GAPDH in this case) among different samples. This is what is termed as normalization of the specific gene expression or normalizing with respect to the different total concentration of RNA of the samples since if the quantity of endogenous control varies it is due to changes in the total RNA quantity used in the synthesis of cDNA, not to changes in its expression. For the quantification, the quantity of amplicon produced is measured in each cycle of PCR. The quantification of the product is produced by means of the addition of fluorophores which join to the amplicon in a quantitative manner such that the greater the product, the greater the fluorescence that will be emitted. […]

Assay [3] concerns transcripts of the gene of the elastin. The experiment in a line: Induction of elastin synthesis by quantitative PCR in keratinocytes. The following applies: control = value 1, dose dependent, 72 hours. In kind it is cell-based, human.
Description: as §4, §5

Assay [4] has as its system human fibroblasts (HSF). Description: MTT cell proliferation assay in human fibroblasts. In kind it is cell-based. The following applies: 72 hours. The text has this: (§6) This assay is based on metabolic reduction of bromide 3-(4,5-dimethylthiazol-2-yl)-2,5-diphenyltetrazolium (MTT) carried out by the mitochondrial succinate dehydrogenase enzyme in a blue colored compound (formazan), allowing the mitochondrial functionality of the treated cells to be determined. This method has been very widely used to measure cell survival and proliferation. The quantity of live cells is proportional to the quantity of formazan produced. This method was developed by Mosmann in 1983, modified in 1986 by Francois Denizot and Rita Lang. • 1. Using trypsin, separate the cells and re-suspend them in supplemented culture medium (10% of bovine fetal serum and antibiotic). • 2. Determine the number of cells required per well using a Neubauer camera (HaCaT: 5,000 cells/96 well, 30,000 cells/24 well; HSF: 4,000 cells/96 well, 30,000 cells/24 well. • 3. Incubate at 37° C. and 5% of CO2 for 24 hours to allow for the adherence thereof. • 4. Prepare the mixtures of free and liposomated factor at the indicated concentrations, remove the medium and add the mixtures. • 5. Incubate at 37° C. and 5% of CO2 for 72 hours. • 6. Add MTT (1.9 mg/ml) in PBS solution (25 μl total) over the medium • 7. Incubate for 3 hours at 37° C. to allow for the formation of formazan crystals. • 8. Then remove the supernatant and add 100 μl of DMSO. • 9. Incubate for 30 minutes at 37° C. to allow for the formazan crystals to dissolve • 10. The optical density reading (OD) is carried out in a spectrophotometer at a wavelength of 570 nm. • The viability percentage is obtained in the following manner: % viability—DO cells treated×100/DO control cells
In general terms: Formazan colour is commonly taken as a measure of viable cells.

Assay [5] concerns transcripts of the gene of the elastin. Description: Induction of elastin synthesis by quantitative PCR in fibroblasts. The format is cell-based, human. The following applies: control = value 1, dose dependent, 72 hours.
Description: as §4, §5

The test system of the next assay is IL6 transcripts. The experiment in a line: Anti-inflammatory effect by quantitative PCR after LPS, IL6 transcripts. In kind it is cell-based, human. The following applies: cells with prior inflammation induced with 200 ng/ml LPS for three hours, dose dependent.
Description: as §4, §5

Assay [6] has as its system human keratinocytes (HaCaT). The experiment in a line: MTT cell proliferation assay in human keratinocytes. In kind it is cell-based. The following applies: 72 hours.
Description: as §6

Where [7] appears, read: concentrations greater than 1 ng/ml.
Setting [8] is: low concentrations 0.01 ng/ml-0.5 ng/ml, untreated cells = 100% proliferation.

For “Nicotiana benthamiana Sh-Polypeptide-7 [HGH free factor]”, in the assay on human fibroblasts (HSF) [1], the “repair velocity of the wound versus control cells” value is reported as “hardly any difference”. The “wound closed more quickly than in the control cells” value in assay [2] is given as 40%. Besides, in assay [2], the wound closure entry was “completely closed”. For the same molecule, the “transcript levels of TNFa” value in the assay with TNFa transcripts is given as “decrease”. Moreover, the “synthesis of elastin (elastin gene transcripts) with respect to the control cells” value in assay [3] and in assay [5] was “increase in the synthesis of elastin” in each case. The “cell proliferation (untreated cells = 100%)” value in the assay with human fibroblasts (HSF) [4] (concentration not given) and in the assay with human fibroblasts (HSF) [4] (setting [7]) was “around 100%” in each case. Also, in the assay on IL6 transcripts, the “transcript levels of IL6” value is reported as “decrease”. The “cell proliferation above the untreated cells” value in assay [6] (setting [7]) is “around 20%”.

Consider “Nicotiana benthamiana Sh-Polypeptide-45 [GM-CSF free factor]”, for which, in the assay with human fibroblasts (HSF) [1], the “repair velocity of the wound, more quickly with respect to the control” value came out at 20%. Besides, the “wound closed more quickly than in the control cells” value in assay [2] is given as 13%. Further, the wound closure result in assay [2] is given as “completely closed”. In addition, in the assay on TNFa transcripts, the “transcript levels of TNFa” value is given as “decrease”. The “synthesis of elastin (elastin gene transcripts) with respect to the control cells” value in assay [3] and in assay [5] was “increase in the synthesis of elastin” each time. The “cell proliferation above the untreated cells” value in the assay with human fibroblasts (HSF) [4] (setting [7]) was “around 60%”; in the assay on human fibroblasts (HSF) [4] (setting [8]), 100%; in assay [6] (setting [7]), “around 20%”; in assay [6] (setting [8]), 20%. In the assay on IL6 transcripts, the “transcript levels of IL6” value was “decrease”.

B1: follistatin (protein, UniProt P19883 30-344, looked up)
Follistatin: GNCWLRQAKNGRCQVLYKTELSKEECCSTGRLSTSWTEEDVNDNTLFKWMIFNGGAPNCIPCKETCENVDCGPGKKCRMNKKNKPRCVCAPDCSNITWKGPVCGLDGKTYRNECALLKARCKEQPELEVQYQGRCKKTCRDVFCPGSSTCVVDQTNNAYCVTCNRICPEPASSEQYLCGNDGVTYSSACHLRKATCLLGRSIGLAYEGKCIKAKSCEDIQCTGGKKCLWDFKVGRGRCSLCDELCPDSKSDEPVCASDNATYASECAMKEAACSSGVLLEVKHSGSCNSISEDTEEEEEDEDQDYSFPISSILEW
notes: growth factor follistatin analyzed in free form
On to B1, for which the “cell proliferation above the untreated cells” value in the assay with human fibroblasts (HSF) [4] (concentration of 0.5 ng/ml) is 40%; with human fibroblasts (HSF) [4] (setting [7]), “maintains cell proliferation around the control”.
